Reference: US11932845B2, “Microorganisms and methods for production of 4-hydroxybutyrate, 1,4-butanediol and related compounds” (priority 2012, dated 2024)
Read-outs that look alike come from different tables or passages of the source.

Experiments:
Alcohol dehydrogenase = Alcohol dehydrogenase (ADH) assay in the reductive direction, cell extracts; conditions: cell extracts from MG1655 lacI^Q containing pZA33
Protocol: (§1) Alcohol (ADH) and aldehyde (ALD) dehydrogenase was assayed in the reductive direction using a procedure adapted from several literature sources (Durre et al., FEMS Microbiol. Rev. 17:251-262 (1995); Palosaari and Rogers, J. Bacteriol. 170:2971-2976 (1988) and Welch et al., Arch. Biochem. Biophys. 273:309-318 (1989). The oxidation of NADH is followed by reading absorbance at 340 nm every four seconds for a total of 240 seconds at room temperature. The reductive assays were performed in 100 mM MOPS (adjusted to pH 7.5 with KOH), 0.4 mM NADH, and from 1 to 50 μl of cell extract. The reaction is started by adding the following reagents: 100 μl of 100 mM acetaldehyde or butyraldehyde for ADH, or 100 μl of 1 mM acetyl-CoA or butyryl-CoA for ALD. The Spectrophotometer is quickly blanked and then the kinetic read is started. The resulting slope of the reduction in absorbance at 340 nm per minute, along with the molar extinction coefficient of NAD(P)H at 340 nM (6000) and the protein concentration of the extract, can be used to determine the specific activity.
(§2) Gene candidates for the 4-HB to BDO conversion pathway were next tested for activity when expressed in the E. coli host MG1655 lacI^Q. Recombinant strains containing each gene candidate expressed on pZA33 were grown in the presence of 0.25 mM IPTG for four hours at 37° C. to fully induce expression of the enzyme. Four hours after induction, cells were harvested and assayed for ADH and ALD activity as described above.

Aldehyde dehydrogenase = Aldehyde dehydrogenase (ALD) assay in the reductive direction, cell extracts; conditions: cell extracts from MG1655 lacI^Q containing pZA33
Protocol: as §1, §2

[1] = test system: alcohol dehydrogenase from Brevibacterium sp KU 1309; conditions: reduction of carbonyl compounds; cited from earlier work
[2] = test system: alcohol dehydrogenase from Brevibacterium sp KU; conditions: oxidation of alcohols, cited from earlier work; for Relative Activity: 2-phenylethanol taken as 100%
[3] = test system: L(+)-lactate dehydrogenase from A. eutrophus; conditions: compared with that on pyruvate; cited from earlier work
[4] = target: T1, L(+)-lactate dehydrogenase from rabbit muscle (Oryctolagus cuniculus, UniProt P13491); conditions: compared with that on pyruvate; cited from earlier work
T1 construct: host or cells: rabbit muscle

[5] = test system: D(−)-lactate dehydrogenase from L. leichmanii; conditions: compared with that on pyruvate; cited from earlier work
homoserine kinase = homoserine kinase (Escherichia coli, UniProt P00547); conditions: cited from earlier work
aminotransferase = conditions: activity considered 100% on tyrosine; cited from earlier work
cytochrome-bd oxidases = conditions: cited from earlier work; for Km: pH 7
[6] = test system: 4-HB to BDO conversion pathway; assay: Production of BDO from 10 mM 4-HB in recombinant E. coli strains; conditions: for BDO: 10 mM 4-HB, 24 hours, cat2 (0034) on pZA33
Protocol: For the BDO production experiments, cat2 from Porphyromonas gingivalis W83 (gene 0034) was included on pZA33 for the conversion of 4-HB to 4-HB-CoA, while the candidate dehydrogenase genes were expressed on pZE13. The host strain was MG1655 lacI^Q. Along with the alcohol and aldehyde dehydrogenase candidates, we also tested the ability of CoA-dependent succinic semialdehyde dehydrogenases (sucD) to function in this step, due to the similarity of the substrates. Cells were grown to an OD of about 0.5 in LB medium supplemented with 10 mM 4-HB, induced with 1 mM IPTG, and culture broth samples taken after 24 hours and analyzed for BDO as described below.
Finally, the construct was tested for participation in the conversion of 4-HB to BDO. Host strains were transformed with the pZA33-0020-0021 construct described and pZE13-0002, and compared to use of cat2 in BDO production using the aerobic procedure used above in FIG. 5.

homoserine kinase, sequence (P00547 whole entry): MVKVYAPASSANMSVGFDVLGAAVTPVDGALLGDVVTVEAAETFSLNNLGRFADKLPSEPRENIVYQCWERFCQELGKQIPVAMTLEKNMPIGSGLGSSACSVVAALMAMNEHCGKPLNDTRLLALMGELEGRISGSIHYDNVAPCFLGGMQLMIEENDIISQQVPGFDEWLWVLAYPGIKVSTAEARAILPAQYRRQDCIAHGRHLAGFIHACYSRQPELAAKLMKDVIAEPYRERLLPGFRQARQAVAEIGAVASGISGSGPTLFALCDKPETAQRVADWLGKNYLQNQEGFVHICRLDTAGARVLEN

0011: Gene ID 0011, adhE, E. coli, Aldehyde/alcohol dehydrogenase [Sample 0011]
Alcohol dehydrogenase, Substrate Acetaldehyde (Alcohol dehydrogenase): 0.0093 μmol min^−1 mg cell protein^−1
Alcohol dehydrogenase, Substrate Butyraldehyde (Alcohol dehydrogenase): 0.0265 μmol min^−1 mg cell protein^−1
Aldehyde dehydrogenase, Substrate Acetyl-CoA (Aldehyde dehydrogenase): 0.0095 μmol min^−1 mg cell protein^−1
Aldehyde dehydrogenase, Substrate Butyryl-CoA (Aldehyde dehydrogenase): 0.0069 μmol min^−1 mg cell protein^−1

CCCCCCCC=O [1-Octylaldehyde]
Relative Activity [1]: 87%

CC(O)c1ccccc1 (stereo not drawn) [1-Phenylethanol]
Relative Activity [2]: 46 0%

CCC(=O)C(=O)O [2-Oxobutyrate]
Activity (%) of L(+)-lactate dehydrogenase from A. eutrophus [3]: 107.0%
Activity (%) of L(+)-lactate dehydrogenase from rabbit muscle [4]: 18.6%
Activity (%) of D(−)-lactate dehydrogenase from L. leichmanii [5]: 1.1%

CCCC(=O)C(=O)O [2-Oxovalerate]
Activity (%) of L(+)-lactate dehydrogenase from A. eutrophus [3]: 125.0%
Activity (%) of L(+)-lactate dehydrogenase from rabbit muscle [4]: 0.7%
Activity (%) of D(−)-lactate dehydrogenase from L. leichmanii [5]: 0.0%

CC(C=O)c1ccccc1 (stereo not drawn) [2-Phenylpropionaldehyde]
Relative Activity [1]: 188%

O=C(O)C(=O)CF [3-Fluoropyruvate]
Activity (%) of L(+)-lactate dehydrogenase from A. eutrophus [3]: 33.6%
Activity (%) of L(+)-lactate dehydrogenase from rabbit muscle [4]: 74.3%
Activity (%) of D(−)-lactate dehydrogenase from L. leichmanii [5]: 40.0%

CC(C)C(=O)C(=O)O [3-Methyl-2-oxobutyrate]
Activity (%) of L(+)-lactate dehydrogenase from A. eutrophus [3]: 28.5%
Activity (%) of L(+)-lactate dehydrogenase from rabbit muscle [4]: 0.0%
Activity (%) of D(−)-lactate dehydrogenase from L. leichmanii [5]: 0.0%

CCC(C)C(=O)C(=O)O (stereo not drawn) [3-Methyl-2-oxovalerate]
Activity (%) of L(+)-lactate dehydrogenase from A. eutrophus [3]: 5.3%
Activity (%) of L(+)-lactate dehydrogenase from rabbit muscle [4]: 0.0%
Activity (%) of D(−)-lactate dehydrogenase from L. leichmanii [5]: 0.0%

OCCCc1ccccc1 [3-Phenylpropanol]
Relative Activity [2]: 135 0%
Km [2]: 33 µM

CC(C)CC(=O)C(=O)O [4-Methyl-2-oxopentanoate]
Activity (%) of L(+)-lactate dehydrogenase from A. eutrophus [3]: 39.0%
Activity (%) of L(+)-lactate dehydrogenase from rabbit muscle [4]: 1.4%
Activity (%) of D(−)-lactate dehydrogenase from L. leichmanii [5]: 1.1%

C[C@@H](CO)c1ccccc1 [(R)-2-Phenylpropanol]
Relative Activity [2]: 63 0%
Km [2]: 20 µM

C[C@H](CO)c1ccccc1 [(S)-2-Phenylpropanol]
Relative Activity [2]: 156 0%
Km [2]: 157 µM

CC(=O)c1ccccc1 [Acetophenone]
Relative Activity [1]: 0%

N[C@H](CCO)C(=O)O [D-homoserine]
% kcat (homoserine kinase): 32%

CCO [Ethanol]
Relative Activity [2]: 76 0%

O=CC(=O)O [Glyoxylate]
Activity (%) of L(+)-lactate dehydrogenase from A. eutrophus [3]: 8.7%
Activity (%) of D(−)-lactate dehydrogenase from L. leichmanii [5]: 5.0%

N[C@H](CO)CCO [L-2-amino-1,4-butanediol]
% kcat (homoserine kinase): 7.9%

N[C@@H](CCCO)C(=O)O [L-2-amino-5-hydroxyvalerate]
% kcat (homoserine kinase): 9.9%
Km (homoserine kinase): 1100 ± 500 µM

N[C@@H](CC=O)C(=O)O [L-aspartate β-semialdehyde]
% kcat (homoserine kinase): 8.2%
Km (homoserine kinase): 280 ± 20 µM

CCOC(=O)[C@@H](N)CCO [L-homoserine ethyl ester]
% kcat (homoserine kinase): 74%

CC(C)COC(=O)[C@@H](N)CCO [L-homoserine isobutyl ester]
% kcat (homoserine kinase): 84%

CC(C)OC(=O)[C@@H](N)CCO [L-homoserine isopropyl ester]
% kcat (homoserine kinase): 74%

COC(=O)[C@@H](N)CCO [L-homoserine methyl ester]
% kcat (homoserine kinase): 80%

CCCOC(=O)[C@@H](N)CCO [L-homoserine n-propyl ester]
% kcat (homoserine kinase): 76%

N[C@@H](CCO)C(=O)O [L-homoserine]
% kcat (homoserine kinase): 100%

CCCCOC(=O)[C@@H](N)CCO [L-homserine n-butyl ester]
% kcat (homoserine kinase): 160%
Km (homoserine kinase): 5800 ± 800 µM

O=CCc1ccccc1 [Phenylacetaldehyde]
Relative Activity [1]: 100%

CCCCO [Sample 1-Butanol, 1-Butanol]
Relative Activity [2]: 111 0%

CCCCCCCCCCCCO [Sample 1-Dodecanol, 1-Dodecanol]
Relative Activity [2]: 68 0%

CCCCCCCCO [Sample 1-Octanol, 1-Octanol]
Relative Activity [2]: 101 0%

CC(C)O [Sample 2-Propanol, 2-Propanol]
Relative Activity [2]: 54 0%

CC(C)C[C@H](N)C(=O)O [leucine]
activity (aminotransferase): 25%

CSCC[C@H](N)C(=O)O [methionine]
activity (aminotransferase): 25%

N[C@@H](Cc1ccccc1)C(=O)O [phenylalanine]
activity (aminotransferase): 90%

N[C@@H](Cc1c[nH]c2ccccc12)C(=O)O [tryptophan]
activity (aminotransferase): 85%

N[C@@H](Cc1ccc(O)cc1)C(=O)O [tyrosine]
activity (aminotransferase): 100%

Cytochrome bd-II
In vivo sp act (cytochrome-bd oxidases): 70 ± 12 mol O2/mol cytochrome bd/s
Vmax (cytochrome-bd oxidases): 818 ± 75 mol O/mol cytochrome bd/s
Km (cytochrome-bd oxidases; read-out: Km (O2) at pH 7): 2 ± 0.3 µM
Km (cytochrome-bd oxidases; read-out: Km (UQ-H2) at pH 7): 250 ± 45 µM

B1: 0013: Gene ID 0013, bdhB, Clostridium acetobutylicum ATCC 824, Butanol dehydrogenase II (protein, UniProt Q04945 1-390, looked up)
NADH-dependent butanol …: MVDFEYSIPTRIFFGKDKINVLGRELKKYGSKVLIVYGGGSIKRNGIYDKAVSILEKNSIKFYELAGVEPNPRVTTVEKGVKICRENGVEVVLAIGGGSAIDCAKVIAAACEYDGNPWDIVLDGSKIKRVLPIASILTIAATGSEMDTWAVINNMDTNEKLIAAHPDMAPKFSILDPTYTYTVPTNQTAAGTADIMSHIFEVYFSNTKTAYLQDRMAEALLRTCIKYGGIALEKPDDYEARANLMWASSLAINGLLTYGKDTNWSVHLMEHELSAYYDITHGVGLAILTPNWMEYILNNDTVYKFVEYGVNVWGIDKEKNHYDIAHQAIQKTRDYFVNVLGLPSRLRDVGIEEEKLDIMAKESVKLTGGTIGNLRPVNASEVLQIFKKSV
Alcohol dehydrogenase, Substrate Acetaldehyde (Alcohol dehydrogenase): 0.0142 μmol min^−1 mg cell protein^−1
Alcohol dehydrogenase, Substrate Butyraldehyde (Alcohol dehydrogenase): 0.0130 μmol min^−1 mg cell protein^−1

B2: 0008n: Gene ID 0008 (native), sucD, Clostridium kluyveri DSM 555, Succinic semialdehyde dehydrogenase (CoA-dependent) (protein, UniProt P38947 1-453, looked up)
Succinate-semialdehyde …: MSNEVSIKELIEKAKVAQKKLEAYSQEQVDVLVKALGKVVYDNAEMFAKEAVEETEMGVYEDKVAKCHLKSGAIWNHIKDKKTVGIIKEEPERALVYVAKPKGVVAATTPITNPVVTPMCNAMAAIKGRNTIIVAPHPKAKKVSAHTVELMNAELKKLGAPENIIQIVEAPSREAAKELMESADVVIATGGAGRVKAAYSSGRPAYGVGPGNSQVIVDKGYDYNKAAQDIITGRKYDNGIICSSEQSVIAPAEDYDKVIAAFVENGAFYVEDEETVEKFRSTLFKDGKINSKIIGKSVQIIADLAGVKVPEGTKVIVLKGKGAGEKDVLCKEKMCPVLVALKYDTFEEAVEIAMANYMYEGAGHTAGIHSDNDENIRYAGTVLPISRLVVNQPATTAGGSFNNGFNPTTTLGCGSWGRNSISENLTYEHLINVSRIGYFNKEAKVPSYEEIWG
BDO/OD ([6]; Aerobic): 47.6
BDO ([6]; Aerobic): 255.8 µM
BDO/OD ([6]; Anaerobic): 98.1
BDO ([6]; Anaerobic): 60.8 µM
BDO/OD ([6]; Microaerobic): 41.9
BDO ([6]; Microaerobic): 127.9 µM

B3: Cytochrome bo (protein, UniProt P0ABJ1 25-315; P0ABI8 1-663; P0ABJ3 1-204; P0ABJ6 1-109, looked up)
Cytochrome bo(3) ubiquinol … 1: CNSALLDPKGQIGLEQRSLILTAFGLMLIVVIPAILMAVGFAWKYRASNKDAKYSPNWSHSNKVEAVVWTVPILIIIFLAVLTWKTTHALEPSKPLAHDEKPITIEVVSMDWKWFFIYPEQGIATVNEIAFPANTPVYFKVTSNSVMNSFFIPRLGSQIYAMAGMQTRLHLIANEPGTYDGISASYSGPGFSGMKFKAIATPDRAAFDQWVAKAKQSPNTMSDMAAFEKLAAPSEYNQVEYFSNVKPDLFADVINKFMAHGKSMDMTQPEGEHSAHEGMEGMDMSHAESAH
Cytochrome bo(3) ubiquinol … 2: MFGKLSLDAVPFHEPIVMVTIAGIILGGLALVGLITYFGKWTYLWKEWLTSVDHKRLGIMYIIVAIVMLLRGFADAIMMRSQQALASAGEAGFLPPHHYDQIFTAHGVIMIFFVAMPFVIGLMNLVVPLQIGARDVAFPFLNNLSFWFTVVGVILVNVSLGVGEFAQTGWLAYPPLSGIEYSPGVGVDYWIWSLQLSGIGTTLTGINFFVTILKMRAPGMTMFKMPVFTWASLCANVLIIASFPILTVTVALLTLDRYLGTHFFTNDMGGNMMMYINLIWAWGHPEVYILILPVFGVFSEIAATFSRKRLFGYTSLVWATVCITVLSFIVWLHHFFTMGAGANVNAFFGITTMIIAIPTGVKIFNWLFTMYQGRIVFHSAMLWTIGFIVTFSVGGMTGVLLAVPGADFVLHNSLFLIAHFHNVIIGGVVFGCFAGMTYWWPKAFGFKLNETWGKRAFWFWIIGFFVAFMPLYALGFMGMTRRLSQQIDPQFHTMLMIAASGAVLIALGILCLVIQMYVSIRDRDQNRDLTGDPWGGRTLEWATSSPPPFYNFAVVPHVHERDAFWEMKEKGEAYKKPDHYEEIHMPKNSGAGIVIAAFSTIFGFAMIWHIWWLAIVGFAGMIITWIVKSFDEDVDYYVPVAEIEKLENQHFDEITKAGLKNGN
Cytochrome bo(3) ubiquinol … 3: MATDTLTHATAHAHEHGHHDAGGTKIFGFWIYLMSDCILFSILFATYAVLVNGTAGGPTGKDIFELPFVLVETFLLLFSSITYGMAAIAMYKNNKSQVISWLALTWLFGAGFIGMEIYEFHHLIVNGMGPDRSGFLSAFFALVGTHGLHVTSGLIWMAVLMVQIARRGLTSTNRTRIMCLSLFWHFLDVVWICVFTVVYLMGAM
Cytochrome bo(3) ubiquinol … 4: MSHSTDHSGASHGSVKTYMTGFILSIILTVIPFWMVMTGAASPAVILGTILAMAVVQVLVHLVCFLHMNTKSDEGWNMTAFVFTVLIIAILVVGSIWIMWNLNYNMMMH
Vmax (cytochrome-bd oxidases): 225 mol O/mol cytochrome bd/s
